From ChEMBL document CHEMBL4414627, “Ealamines A-H, a Series of Naphthylisoquinolines with the Rare 7,8'-Coupling Site, from the Congolese Liana Ancistrocladus ealaensis, Targeting Pancreatic Cancer Cells” (J Nat Prod, 2019) come the findings set out here.

Data set [1] relates to Plasmodium falciparum. Description: Antiprotozoal activity against chloroquine and pyrimethamine-resistant erythrocytic stage of Plasmodium falciparum K1 assessed as reduction in [3H]hypoxanthine incorporation preincubated for 48 hrs followed by [3H]hypoxanthine addition and measured after 24 hrs by liquid scintillation counting method. The format is functional, organism-based.

The subject of data set [2] is Plasmodium falciparum. Kind of data set: Antiprotozoal activity against chloroquine-sensitive Plasmodium falciparum NF54. Type of data set: functional, organism-based.
Another data set concerns Trypanosoma cruzi. Kind of data set: Antiprotozoal activity against Trypanosoma cruzi Tulahuen C4 amastigotes infected in rat L6 cells incubated for 96 hrs by beta-galactosidase reporter gene assay. The format is functional, organism-based. (In general: A reporter such as luciferase makes a cellular process visible.)
The subject of data set [3] is Trypanosoma brucei rhodesiense. Kind of data set: Antiprotozoal activity against Trypanosoma brucei rhodesiense STIB900 trypomastigotes incubated for 72 hrs by Alamar blue staining-based fluorometric analysis. The format is functional, organism-based. Background: Alamar Blue is a resazurin reagent that responds to reducing activity.
Another data set has as its system Leishmania donovani. Description: Antiprotozoal activity against Leishmania donovani MHOM-ET-67/L82 axenic amastigotes incubated for 72 hrs by Alamar blue staining-based fluorometric analysis. Type of data set: functional, organism-based.
The next data set has as its system L6. Kind of data set: Cytotoxicity against rat L6 cells assessed as reduction in cell viability incubated for 72 hrs by Alamar blue staining-based fluorometric analysis.
A short description of data set [4]: Selectivity index, ratio of IC50 for rat L6 cells to IC50 for chloroquine and pyrimethamine-resistant erythrocytic stage of Plasmodium falciparum K1. Type of data set: toxicity. To be noted: for selectivity ratio: L6 cells, read-out: Ratio IC50.
Data set [5] has as its system PANC-1. Description: Cytotoxicity against nutrient deprived human PANC1 cells assessed as induction of cell killing incubated for 24 hrs by WST-8 assay. Type of data set: functional. On the technique in general: Formazan colour is commonly taken as a measure of viable cells.
Data set [6] concerns PANC-1. Kind of data set: Cytotoxicity against DMEM cultured human PANC1 cells assessed as reduction in cell viability at PC50 incubated for 24 hrs by WST-8 assay. The format is cell-based. To be noted: panc-1, 24 h.
Data set [7] in a line: Selectivity index, ratio of IC50 for rat L6 cells to IC50 for chloroquine-sensitive Plasmodium falciparum NF54. The format is toxicity. As to conditions: read-out: Ratio IC50.
For data set [8], the system named is PANC-1. Kind of data set: Induction of cell morphological changes in nutrient deprived human PANC1 cells incubated for 24 hrs by acridine orange/ethidium bromide double staining-based fluorescence/phase contrast mode based EVOS FL digital microscopic analysis. The format is functional.
In data set [9] the test system is PANC-1. Description: Induction of cell morphological changes in human PANC1 cells assessed as loss of membrane integrity at 12.5 uM incubated for 24 hrs in nutrient deprived medium by acridine orange/ethidium bromide double staining-based fluorescence/phase contrast mode based EVOS FL digital microscopic analysis. The format is functional.
The test system of data set [10] is PANC-1. Description: Induction of cell death in nutrient deprived human PANC1 cells at 12.5 uM incubated for 24 hrs by acridine orange/ethidium bromide double staining-based fluorescence/phase contrast mode based EVOS FL digital microscopic analysis. Type of data set: functional.
Data set [11] has as its system PANC-1. Description: Induction of cell morphological changes in nutrient deprived human PANC1 cells assessed as cell swelling at 25 uM incubated for 24 hrs by acridine orange/ethidium bromide double staining-based fluorescence/phase contrast mode based EVOS FL digital microscopic analysis. The format is functional.
The test system of data set [12] is PANC-1. Description: Induction of cell morphological changes in nutrient deprived human PANC1 cells assessed as cell rounding at 25 uM incubated for 24 hrs by acridine orange/ethidium bromide double staining-based fluorescence/phase contrast mode based EVOS FL digital microscopic analysis. Type of data set: functional.
Where [13] appears, read: Trypanosoma cruzi, Tulahuen C4, L6, 96 h.
Where [14] appears, read: Trypanosoma brucei, STIB900, 72 h.
Where [15] appears, read: Leishmania donovani, MHOM-ET-67/L82, 72 h.

Activity calls are given as the source filed them. No cut-off for these calls is given here.

Usually IC50 stands for the point on the concentration scale where inhibition reaches its midpoint. Take `COc1c(-c2ccc(OC)c3c(OC)cc(C)cc23)c(O)cc2c1[C@@H](C)N[C@H](C)C2` (single isomer, unassigned; atropisomer) [listing 1 of 2 here]: the IC50 was 1.6 µM in the data set on Plasmodium falciparum [1]; 6.3 µM in the data set with Plasmodium falciparum [2]; 73.4 µM in the data set on Trypanosoma cruzi; 9.8 µM in data set [3]; 170 µM with Leishmania donovani; 9.1 µM in the data set with L6 (l6). Besides, in [4], the “Ratio IC50” value is 5.6. Further, the PC50 in the data set with PANC-1 [5] came to 12.5 µM. For the same molecule, the Activity entry with PANC-1 [6] is reported as “Non-Toxic”.
In the case of `COc1cc(O)c(-c2cc(-c3cc(-c4c(O)cc5c(c4OC)[C@H](C)N[C@H](C)C5)c4cc(C)cc(OC)c4c3O)c(O)c3c(OC)cc(C)cc23)c2c1[C@H](C)N[C@H](C)C2`, the concentration for half-maximal inhibition (IC50) in the data set on Plasmodium falciparum [1] (Plasmodium falciparum, K1) was 0.0063 µM; in the data set on L6 (Rattus norvegicus, L6, 72 h), 6 µM. Moreover, in data set [4], the selectivity ratio is 1000.
Take `COc1c2c(cc(O)c1-c1ccc(O)c3c(OC)cc(C)cc13)C[C@@H](C)N=C2C`: in the data set with PANC-1 [5], the Activity entry is “Dose-dependent effect” and the PC50 worked out at 37.8 µM. The Activity entry in the data set on PANC-1 [6] is “Non-Toxic”.
Consider `COc1c(-c2ccc(OC)c3c(OC)cc(C)cc23)c(O)cc2c1[C@@H](C)N[C@H](C)C2` (single isomer, unassigned; atropisomer) [listing 2 of 2 here], for which the Activity entry in the data set with PANC-1 [5] is “Dose-dependent effect”.
Same read-out and setting: with `COc1c(-c2ccc(OC)c3c(OC)cc(C)cc23)c(O)cc2c1[C@@H](C)N[C@H](C)C2` [listing 1 of 2 here] the entry was “Dose-dependent effect”.
On to `COc1c(-c2ccc(O)c3c(OC)cc(C)cc23)c(O)cc2c1[C@@H](C)N[C@H](C)C2`, for which the IC50 with Plasmodium falciparum [2] (Plasmodium falciparum, NF54) was 0.84 µM; in the data set on Trypanosoma cruzi (setting [13]), 102 µM; in data set [3] (setting [14]), 9.4 µM; in the data set on Leishmania donovani (setting [15]) it was more than 250 µM; in the data set with L6 (Rattus norvegicus, L6, 72 h) it was 47.7 µM. For the same molecule, the selectivity ratio in [7] was found to be 56.8. Also, the Activity result was “Dose-dependent effect” in the data set on PANC-1 [5]; “Dose-dependent effect” in the data set on PANC-1 [8]; 100% in the data set with PANC-1 [11]; 100% with PANC-1 [12]; “Non-Toxic” in the data set on PANC-1 [6]. Also, the PC50 with PANC-1 [5] was 9.9 µM. In addition, the result with PANC-1 [9] and in the data set on PANC-1 [10] was Active.
`COc1c(-c2ccc(OC)c3c(OC)cc(C)cc23)c(O)cc2c1[C@@H](C)N[C@H](C)C2` [listing 2 of 2 here]: the IC50 with Plasmodium falciparum [1] (Plasmodium falciparum, K1) turned out to be 1.4 µM; with Plasmodium falciparum [2] (Plasmodium falciparum, NF54), 4.9 µM; in the data set on Trypanosoma cruzi (setting [13]) it was 123 µM; in [3] (setting [14]), 7.8 µM; in the data set on Leishmania donovani, 53.4 µM; in the data set with L6 (l6) it was 20.9 µM. In data set [4], the “Ratio IC50” value is 15. In addition, in the data set on PANC-1 [5], the PC50 worked out at 30.6 µM.
On to `COc1cc(C[C@H]2C(=O)OC[C@@H]2Cc2ccc(OC)c(OC)c2)ccc1O` [ARCTIGENIN], for which the PC50 in the data set on PANC-1 [5] was found to be 0.8 µM. The Activity result in the data set with PANC-1 [6] is reported as “Non-Toxic”.
For `COc1c(-c2ccc(O)c3c(OC)cc(C)cc23)c(O)cc2c1[C@H](C)N[C@H](C)C2`, in the data set on PANC-1 [5], the Activity entry was “Dose-dependent effect” and the PC50 amounted to 33.4 µM. In the data set with PANC-1 [6], the Activity entry is “Non-Toxic”.
Regarding `O=C(Cn1ccnc1[N+](=O)[O-])NCc1ccccc1` [BENZNIDAZOLE], the IC50 in the data set on Trypanosoma cruzi (setting [13]) worked out at 3.6 µM.
With `COc1cc2c(c(O)c1-c1ccc(OC)c3c(OC)cc(C)cc13)[C@@H](C)N[C@H](C)C2`, the half-inhibitory concentration (IC50) with Plasmodium falciparum [1] (Plasmodium falciparum, K1) was 8.2 µM; in the data set on Plasmodium falciparum [2] (Plasmodium falciparum, NF54) it was 22.2 µM; in the data set on Trypanosoma cruzi (setting [13]), 225 µM; in data set [3] (setting [14]) it was 106 µM; with Leishmania donovani (setting [15]), more than 250 µM; with L6 (Rattus norvegicus, L6, 72 h) it was more than 250 µM. In addition, the selectivity ratio in data set [4] is more than 30. Besides, the Activity result is “Dose-dependent effect” in the data set with PANC-1 [5] and “Non-Toxic” in the data set on PANC-1 [6]. In addition, in the data set with PANC-1 [5], the PC50 stood at 60.4 µM.
